The values that follow are results of earlier work, collected in patent US20060182790A1, “Dermal medicaments application enhancer” (priority 2005, published 2006).

In the case of `Cl.NCC(=O)CCC(=O)O` [ALA HCl, 5-amino-4-oxopentanoic acid hydrochloride], the solubility in chloroform entry (chloroform) is recorded as “practically insoluble”. Further, the solubility in ethanol entry (ethanol) is recorded as “slightly soluble”. Also, the solubility in hexane entry (hexane) was “practically insoluble”. Besides, the solubility in methanol result (methanol) is “slightly soluble”. Also, the “solubility in mineral oil” value (mineral oil) was “practically insoluble”. Also, the solubility in water entry (water) is on record as “very soluble”.
